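96-well plates; 48 h exposure; 5 concentrations. Endpoints by linear interpolation between flanking doses. Not reached: highest tested concentration assigned. The concentration for 50% growth inhibition is given as GI50.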 Active and inactive are the calls of the source. Rule as the data show it: active = GI50 up to about 1.1 µM and inactive = higher.
What was measured:
Assay in all cases: NCI tumour cell line growth inhibition, 48 h
OVCAR-3 = test system: OVCAR-3
SK-MEL-2 = test system: SK-MEL-2
MOLT-4 = test system: MOLT-4
HCT-116 = test system: HCT-116
SF-539 = test system: SF-539
SF-295 = test system: SF-295
UACC-62 = test system: UACC-62
EKVX = test system: EKVX
HCC 2998 = test system: HCC 2998
OVCAR-5 = test system: OVCAR-5
786-0 = test system: 786-0
UO-31 = test system: UO-31
RXF 393 = test system: RXF 393
SNB-75 = test system: SNB-75
K562 = test system: K562
UACC-257 = test system: UACC-257
OVCAR-4 = test system: OVCAR-4

Measured: GI50

O=C1OC(O)C(Oc2c(Cl)cccc2Cl)=C1Cl (centres undefined)
inactive: OVCAR-3 13.5 µM | SK-MEL-2 15.3 µM | MOLT-4 21.8 µM | HCT-116 14.8 µM | SF-539 17 µM | SF-295 17.5 µM | UACC-62 11.9 µM | EKVX 29.6 µM | HCC 2998 23.3 µM | OVCAR-5 19.4 µM | 786-0 17.1 µM | UO-31 14.1 µM | RXF 393 11.3 µM | SNB-75 25.6 µM | K562 17.3 µM | UACC-257 19.5 µM

CC(=O)Nc1ccc(C(=O)NN2C(=O)C(Cl)C2c2ccc(O)cc2)cc1 (centres undefined)
inactive: OVCAR-3 > 100 µM | SK-MEL-2 > 100 µM | MOLT-4 > 100 µM | HCT-116 > 100 µM | SF-539 > 100 µM | SF-295 > 100 µM | UACC-62 > 100 µM | OVCAR-4 > 100 µM | EKVX > 100 µM | OVCAR-5 > 100 µM | 786-0 72.4 µM | UO-31 > 100 µM | RXF 393 61.7 µM | SNB-75 > 100 µM | K562 > 100 µM | UACC-257 > 100 µM

COc1ccc2c(c1)C1(C=N2)CCN(C(C)=O)CC1
inactive: OVCAR-3 > 100 µM | SK-MEL-2 > 100 µM | MOLT-4 82 µM | HCT-116 > 100 µM | SF-539 > 100 µM | SF-295 > 100 µM | UACC-62 > 100 µM | OVCAR-4 > 100 µM | EKVX > 100 µM | HCC 2998 > 100 µM | OVCAR-5 > 100 µM | 786-0 > 100 µM | SNB-75 41.1 µM | K562 > 100 µM | UACC-257 > 100 µM

Cc1cc(NS(=O)(=O)c2ccc(NC(=O)c3ccc(Cl)c4c(Nc5ccc(S(N)(=O)=O)cc5)c5ccccc5nc34)cc2)no1
inactive: OVCAR-3 20 µM | MOLT-4 22.5 µM | HCT-116 15.2 µM | SF-539 17.3 µM | SF-295 25.1 µM | UACC-62 11.2 µM | OVCAR-4 24.3 µM | EKVX 33.1 µM | HCC 2998 18.7 µM | OVCAR-5 24.5 µM | 786-0 18.3 µM | UO-31 23.2 µM | RXF 393 16.8 µM | SNB-75 20.3 µM | K562 26.9 µM | UACC-257 24 µM

O=C(O)CCc1coc2ccc(O)cc12
inactive: OVCAR-3 > 100 µM | MOLT-4 > 100 µM | HCT-116 > 100 µM | SF-539 > 100 µM | SF-295 > 100 µM | UACC-62 > 100 µM | OVCAR-4 > 100 µM | EKVX > 100 µM | HCC 2998 > 100 µM | 786-0 > 100 µM | RXF 393 > 100 µM | SNB-75 > 100 µM | K562 > 100 µM | UACC-257 > 100 µM

OCCCCOC(c1ccccc1)(c1ccccc1)c1ccccc1
inactive: OVCAR-3 > 100 µM | MOLT-4 > 100 µM | HCT-116 > 100 µM | SF-539 > 100 µM | SF-295 > 100 µM | UACC-62 > 100 µM | OVCAR-4 > 100 µM | HCC 2998 > 100 µM | OVCAR-5 > 100 µM | 786-0 > 100 µM | UO-31 > 100 µM | RXF 393 > 100 µM | SNB-75 67.5 µM | K562 > 100 µM | UACC-257 > 100 µM

CC(=O)Nc1ccccc1-c1cnc2ccccc2n1
inactive: OVCAR-3 > 100 µM | MOLT-4 > 100 µM | HCT-116 > 100 µM | SF-539 > 100 µM | SF-295 > 100 µM | UACC-62 > 100 µM | OVCAR-4 > 100 µM | EKVX > 100 µM | HCC 2998 > 100 µM | OVCAR-5 > 100 µM | 786-0 > 100 µM | SNB-75 > 100 µM | K562 > 100 µM | UACC-257 > 100 µM

C=CCC(C)(C(=O)NCCC)C(=O)c1ccccc1O (centres undefined)
inactive: OVCAR-3 > 100 µM | SK-MEL-2 > 100 µM | MOLT-4 > 100 µM | HCT-116 > 100 µM | SF-539 > 100 µM | UACC-62 > 100 µM | OVCAR-4 > 100 µM | HCC 2998 > 100 µM | 786-0 > 100 µM | UO-31 > 100 µM | RXF 393 > 100 µM | SNB-75 > 100 µM | K562 > 100 µM | UACC-257 > 100 µM

C=CCNC(=S)N1CC(C)C(=O)Nc2cc(Cl)ccc21 (centres undefined)
inactive: SK-MEL-2 > 100 µM | MOLT-4 > 100 µM | HCT-116 > 100 µM | SF-539 76 µM | SF-295 > 100 µM | UACC-62 > 100 µM | OVCAR-4 > 100 µM | EKVX > 100 µM | OVCAR-5 > 100 µM | 786-0 > 100 µM | UO-31 > 100 µM | RXF 393 > 100 µM | SNB-75 > 100 µM | K562 > 100 µM | UACC-257 > 100 µM

Cc1c(C(=O)CSc2nc3ccccc3[nH]2)c(=O)n(-c2ccccc2)n1C
inactive: OVCAR-3 41.1 µM | SK-MEL-2 > 100 µM | MOLT-4 > 100 µM | HCT-116 > 100 µM | SF-539 > 100 µM | SF-295 > 100 µM | OVCAR-4 > 100 µM | HCC 2998 > 100 µM | OVCAR-5 > 100 µM | 786-0 > 100 µM | UO-31 > 100 µM | SNB-75 > 100 µM | UACC-257 > 100 µM

c1ccc2[nH]c(-c3nc4ccccc4o3)nc2c1
inactive: OVCAR-3 > 100 µM | SK-MEL-2 > 100 µM | MOLT-4 > 100 µM | HCT-116 > 100 µM | SF-539 > 100 µM | SF-295 > 100 µM | OVCAR-4 > 100 µM | EKVX 8.65 µM | HCC 2998 > 100 µM | OVCAR-5 > 100 µM | 786-0 > 100 µM | UO-31 > 100 µM | SNB-75 > 100 µM | UACC-257 > 100 µM

CCc1cc(Cc2ccc(C)c(NC(=O)C(=O)C3C(=O)NC(=O)NC3=O)c2CC)cc(C)c1NC(=O)C(=O)C1C(=O)NC(=O)NC1=O
inactive: OVCAR-3 > 100 µM | SK-MEL-2 > 100 µM | MOLT-4 93.5 µM | HCT-116 > 100 µM | SF-539 > 100 µM | UACC-62 > 100 µM | OVCAR-4 > 100 µM | EKVX > 100 µM | HCC 2998 > 100 µM | OVCAR-5 > 100 µM | 786-0 > 100 µM | UO-31 > 100 µM | RXF 393 > 100 µM | SNB-75 24.6 µM | K562 > 100 µM | UACC-257 > 100 µM

COc1ccc2nc(NC(=O)C(=O)C(C(=O)c3ccccc3-c3ccccc3)C3OC(=O)c4ccccc43)sc2c1 (centres undefined)
inactive: OVCAR-3 18.5 µM | SK-MEL-2 13.6 µM | MOLT-4 19.5 µM | HCT-116 14.5 µM | SF-539 15.2 µM | SF-295 27.2 µM | UACC-62 17.3 µM | EKVX 21.7 µM | HCC 2998 15.4 µM | OVCAR-5 18.7 µM | 786-0 15.6 µM | UO-31 20.7 µM | RXF 393 10.2 µM | SNB-75 16.1 µM | K562 30.2 µM | UACC-257 22.4 µM
